In patent publication US9458137B2, “Substituted indol-5-ol derivatives and their therapeutical applications” (NantBioScience, Inc., priority 2012, dated 2016):

How the values were obtained:
Experiment in all cases: Kinase panel activity
Type in all cases: biochemical
Conditions in all cases: 0.1 μM, ATP Km
ZAP-70(h) = ZAP-70(h) (Homo sapiens, UniProt P43403)
Procedure: (§1) The effect of NTW-3475 on kinase activity was tested for a wide range of kinases and is shown in Table 2: Summary Sheet, Activity % ATP Concentration: Km

Ret(h) = target: T1, Ret(h) (Homo sapiens, UniProt P07949)
T1 construct: purchased Millipore (KinaseProfiler service)
Procedure: as §1

Fms(h) = Fms(h) (Homo sapiens, UniProt P07333)
Procedure: as §1

ROCK-II(h) = target: T2, ROCK-II(h) (Homo sapiens, UniProt O75116)
T2 construct: purchased Millipore (KinaseProfiler service)
Procedure: as §1

Lck(h) = Lck(h) (Homo sapiens, UniProt P06239)
Procedure: as §1

WNK3(h) = WNK3(h) (Homo sapiens, UniProt Q9BYP7)
Procedure: as §1

eEF-2K(h) = target: T3, eEF-2K(h) (Homo sapiens, UniProt O00418)
T3 construct: purchased Millipore (KinaseProfiler service)
Procedure: as §1

FGFR1(h) = target: T4, FGFR1(h) (Homo sapiens, UniProt P11362)
T4 construct: purchased Millipore (KinaseProfiler service)
Procedure: as §1

PEK(h) = PEK(h) (Homo sapiens, UniProt Q9NZJ5)
Procedure: as §1

Fes(h) = target: T5, Fes(h) (Homo sapiens, UniProt P07332)
T5 construct: purchased Millipore (KinaseProfiler service)
Procedure: as §1

DAPK2(h) = DAPK2(h) (Homo sapiens, UniProt Q9UIK4)
Procedure: as §1

VRK2(h) = VRK2(h) (Homo sapiens, UniProt Q86Y07)
Procedure: as §1

KDR(h) = KDR(h) (Homo sapiens, UniProt P35968)
Procedure: as §1

WNK2(h) = WNK2(h) (Homo sapiens, UniProt Q9Y3S1)
Procedure: as §1

CK2α2(h) = CK2α2(h) (Homo sapiens, UniProt P19784)
Procedure: as §1

MSSK1(h) = target: T6, MSSK1(h) (Homo sapiens, UniProt Q9UPE1)
T6 construct: purchased Millipore (KinaseProfiler service)
Procedure: as §1

Syk(h) = target: T7, Syk(h) (Homo sapiens, UniProt P43405)
T7 construct: purchased Millipore (KinaseProfiler service)
Procedure: as §1

Aurora-B(h) = Aurora-B(h) (Homo sapiens, UniProt Q96GD4)
Procedure: as §1

FGFR1(V561M)(h) = target: T8, FGFR1(V561M)(h) (Homo sapiens, UniProt P11362, V561M)
T8 construct: purchased Millipore (KinaseProfiler service)
Procedure: as §1

PrKX(h) = target: T9, PrKX(h) (Homo sapiens, UniProt P51817)
T9 construct: purchased Millipore (KinaseProfiler service)
Procedure: as §1

TSSK1(h) = target: T10, TSSK1(h) (Homo sapiens, UniProt Q9BXA7)
T10 construct: purchased Millipore (KinaseProfiler service)
Procedure: as §1

CDK5/p35(h) = CDK5/p35(h) (Homo sapiens, UniProt Q00535)
Procedure: as §1

cSRC(h) = cSRC(h) (Homo sapiens, UniProt P12931)
Procedure: as §1

CDK3/cyclinE(h) = CDK3/cyclinE(h) (Homo sapiens, UniProt Q00526)
Procedure: as §1

MST3(h) = MST3(h) (Homo sapiens, UniProt Q9Y6E0)
Procedure: as §1

cKit(V560G)(h) = cKit(V560G)(h) (Homo sapiens, UniProt P10721, V560G)
Procedure: as §1

Fyn(h) = Fyn(h) (Homo sapiens, UniProt P06241)
Procedure: as §1

ALK(h) = ALK(h) (Homo sapiens, UniProt Q9UM73)
Procedure: as §1

CaMKIδ(h) = CaMKIδ(h) (Homo sapiens, UniProt Q8IU85)
Procedure: as §1

MINK(h) = target: T11, MINK(h) (Homo sapiens, UniProt Q8N4C8)
T11 construct: purchased Millipore (KinaseProfiler service)
Procedure: as §1

JNK2α2(h) = JNK2α2(h) (Homo sapiens, UniProt P45984)
Procedure: as §1

MRCKβ(h) = target: T12, MRCKβ(h) (Homo sapiens, UniProt Q9Y5S2)
T12 construct: purchased Millipore (KinaseProfiler service)
Procedure: as §1

cKit(D816V)(h) = cKit(D816V)(h) (Homo sapiens, UniProt P10721, D816V)
Procedure: as §1

CaMKIIδ(h) = CaMKIIδ(h) (Homo sapiens, UniProt Q13557)
Procedure: as §1

CDK2/cyclinA(h) = CDK2/cyclinA(h) (Homo sapiens, UniProt P24941)
Procedure: as §1

EGFR(T790M)(h) = target: T13, EGFR(T790M)(h) (Homo sapiens, UniProt P00533, T790M)
T13 construct: purchased Millipore (KinaseProfiler service)
Procedure: as §1

Ros(h) = target: T14, Ros(h) (Homo sapiens, UniProt P08922)
T14 construct: purchased Millipore (KinaseProfiler service)
Procedure: as §1

FGFR2(N549H)(h) = FGFR2(N549H)(h) (Homo sapiens, UniProt P21802, N549H)
Procedure: as §1

B1k(m) = B1k(m) (Mus musculus, UniProt P16277)
Procedure: as §1

Sequence of CDK5/p35(h) (Q00535 whole entry): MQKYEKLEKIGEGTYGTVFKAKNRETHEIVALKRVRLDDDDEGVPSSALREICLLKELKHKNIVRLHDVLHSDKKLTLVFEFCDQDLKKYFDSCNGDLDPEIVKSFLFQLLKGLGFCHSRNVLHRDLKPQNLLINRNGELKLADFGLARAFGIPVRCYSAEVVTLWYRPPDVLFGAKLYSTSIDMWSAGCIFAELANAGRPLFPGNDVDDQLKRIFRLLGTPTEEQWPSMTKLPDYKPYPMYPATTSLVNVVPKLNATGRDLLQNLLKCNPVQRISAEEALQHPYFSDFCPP
Sequence of CDK5/p35(h) (Q15078 whole entry partner): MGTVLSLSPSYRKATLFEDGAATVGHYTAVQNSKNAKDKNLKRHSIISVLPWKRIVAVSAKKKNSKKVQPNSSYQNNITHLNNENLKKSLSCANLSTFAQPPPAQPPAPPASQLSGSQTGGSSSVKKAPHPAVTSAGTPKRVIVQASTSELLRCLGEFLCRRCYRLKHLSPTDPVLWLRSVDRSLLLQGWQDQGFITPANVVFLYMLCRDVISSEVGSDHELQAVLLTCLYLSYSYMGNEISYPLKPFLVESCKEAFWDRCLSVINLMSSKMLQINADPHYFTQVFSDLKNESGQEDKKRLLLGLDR
T9 sequence (P51817 whole entry): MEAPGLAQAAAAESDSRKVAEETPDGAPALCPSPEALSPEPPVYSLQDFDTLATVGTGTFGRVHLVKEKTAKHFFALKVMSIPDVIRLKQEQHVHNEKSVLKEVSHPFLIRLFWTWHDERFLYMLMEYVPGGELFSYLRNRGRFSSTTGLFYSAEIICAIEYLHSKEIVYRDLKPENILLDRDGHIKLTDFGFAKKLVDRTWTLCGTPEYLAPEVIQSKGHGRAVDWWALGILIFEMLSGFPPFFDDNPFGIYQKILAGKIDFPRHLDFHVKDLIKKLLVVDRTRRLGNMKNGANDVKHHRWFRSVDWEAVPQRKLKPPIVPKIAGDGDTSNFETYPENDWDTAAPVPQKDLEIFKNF
Sequence of WNK2(h) (Q9Y3S1 whole entry): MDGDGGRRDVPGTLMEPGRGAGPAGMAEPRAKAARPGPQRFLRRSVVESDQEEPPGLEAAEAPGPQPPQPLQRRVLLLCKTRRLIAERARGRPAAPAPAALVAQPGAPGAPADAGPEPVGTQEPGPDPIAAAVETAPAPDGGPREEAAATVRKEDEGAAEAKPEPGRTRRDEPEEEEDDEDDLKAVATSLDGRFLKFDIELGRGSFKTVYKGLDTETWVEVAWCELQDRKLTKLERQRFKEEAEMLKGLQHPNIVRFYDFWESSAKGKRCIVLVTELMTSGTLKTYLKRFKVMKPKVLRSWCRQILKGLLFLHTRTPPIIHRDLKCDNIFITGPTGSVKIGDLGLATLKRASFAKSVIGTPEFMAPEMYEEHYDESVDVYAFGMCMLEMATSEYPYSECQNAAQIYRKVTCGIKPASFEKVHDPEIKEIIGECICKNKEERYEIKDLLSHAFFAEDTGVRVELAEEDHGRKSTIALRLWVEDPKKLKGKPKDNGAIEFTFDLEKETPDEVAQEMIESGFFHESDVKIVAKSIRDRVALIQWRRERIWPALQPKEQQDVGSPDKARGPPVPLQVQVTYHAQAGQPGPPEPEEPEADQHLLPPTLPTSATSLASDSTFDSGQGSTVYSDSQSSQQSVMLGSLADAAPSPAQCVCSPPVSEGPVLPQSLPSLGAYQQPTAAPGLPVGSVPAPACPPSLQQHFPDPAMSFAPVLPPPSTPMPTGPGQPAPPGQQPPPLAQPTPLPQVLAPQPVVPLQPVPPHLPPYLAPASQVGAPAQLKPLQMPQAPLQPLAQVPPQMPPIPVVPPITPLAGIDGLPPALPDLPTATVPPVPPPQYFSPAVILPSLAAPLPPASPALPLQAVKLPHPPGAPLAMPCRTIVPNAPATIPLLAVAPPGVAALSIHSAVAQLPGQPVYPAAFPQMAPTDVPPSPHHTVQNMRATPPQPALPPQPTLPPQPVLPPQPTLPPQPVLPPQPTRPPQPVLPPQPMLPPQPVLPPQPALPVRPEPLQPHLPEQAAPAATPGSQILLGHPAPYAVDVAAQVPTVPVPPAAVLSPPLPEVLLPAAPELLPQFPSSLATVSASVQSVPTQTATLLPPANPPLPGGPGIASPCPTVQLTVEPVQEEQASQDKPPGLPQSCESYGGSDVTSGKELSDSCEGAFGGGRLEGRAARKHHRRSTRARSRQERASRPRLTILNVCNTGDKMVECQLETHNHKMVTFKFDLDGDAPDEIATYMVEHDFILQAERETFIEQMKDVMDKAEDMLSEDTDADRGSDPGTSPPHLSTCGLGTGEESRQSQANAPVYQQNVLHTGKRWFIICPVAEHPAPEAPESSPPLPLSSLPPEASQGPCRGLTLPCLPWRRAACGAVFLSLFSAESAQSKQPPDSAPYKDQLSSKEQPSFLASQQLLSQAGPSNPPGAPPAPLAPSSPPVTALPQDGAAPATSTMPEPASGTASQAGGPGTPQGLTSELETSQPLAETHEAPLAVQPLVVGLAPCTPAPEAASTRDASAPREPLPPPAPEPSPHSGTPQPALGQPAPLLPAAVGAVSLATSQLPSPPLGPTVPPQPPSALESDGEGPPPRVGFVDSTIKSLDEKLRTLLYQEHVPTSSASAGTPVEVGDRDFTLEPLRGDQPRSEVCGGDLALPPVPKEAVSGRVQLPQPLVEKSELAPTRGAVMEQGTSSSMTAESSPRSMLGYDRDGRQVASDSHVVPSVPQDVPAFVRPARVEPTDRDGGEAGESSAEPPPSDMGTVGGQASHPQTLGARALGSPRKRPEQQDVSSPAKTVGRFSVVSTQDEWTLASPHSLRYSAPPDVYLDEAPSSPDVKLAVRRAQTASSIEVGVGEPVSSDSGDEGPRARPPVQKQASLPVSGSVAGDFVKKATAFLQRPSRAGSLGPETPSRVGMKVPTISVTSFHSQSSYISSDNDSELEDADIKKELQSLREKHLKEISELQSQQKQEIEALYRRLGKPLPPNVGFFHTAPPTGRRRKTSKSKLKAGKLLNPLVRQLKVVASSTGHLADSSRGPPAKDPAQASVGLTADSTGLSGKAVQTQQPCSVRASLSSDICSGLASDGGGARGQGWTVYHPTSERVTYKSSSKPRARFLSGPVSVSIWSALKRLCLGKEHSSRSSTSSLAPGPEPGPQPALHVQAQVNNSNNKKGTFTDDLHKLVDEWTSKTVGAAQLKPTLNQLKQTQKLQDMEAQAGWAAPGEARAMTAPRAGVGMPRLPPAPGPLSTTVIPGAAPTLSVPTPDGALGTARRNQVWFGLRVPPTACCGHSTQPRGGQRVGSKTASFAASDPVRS
T1 sequence (P07949 29-1114): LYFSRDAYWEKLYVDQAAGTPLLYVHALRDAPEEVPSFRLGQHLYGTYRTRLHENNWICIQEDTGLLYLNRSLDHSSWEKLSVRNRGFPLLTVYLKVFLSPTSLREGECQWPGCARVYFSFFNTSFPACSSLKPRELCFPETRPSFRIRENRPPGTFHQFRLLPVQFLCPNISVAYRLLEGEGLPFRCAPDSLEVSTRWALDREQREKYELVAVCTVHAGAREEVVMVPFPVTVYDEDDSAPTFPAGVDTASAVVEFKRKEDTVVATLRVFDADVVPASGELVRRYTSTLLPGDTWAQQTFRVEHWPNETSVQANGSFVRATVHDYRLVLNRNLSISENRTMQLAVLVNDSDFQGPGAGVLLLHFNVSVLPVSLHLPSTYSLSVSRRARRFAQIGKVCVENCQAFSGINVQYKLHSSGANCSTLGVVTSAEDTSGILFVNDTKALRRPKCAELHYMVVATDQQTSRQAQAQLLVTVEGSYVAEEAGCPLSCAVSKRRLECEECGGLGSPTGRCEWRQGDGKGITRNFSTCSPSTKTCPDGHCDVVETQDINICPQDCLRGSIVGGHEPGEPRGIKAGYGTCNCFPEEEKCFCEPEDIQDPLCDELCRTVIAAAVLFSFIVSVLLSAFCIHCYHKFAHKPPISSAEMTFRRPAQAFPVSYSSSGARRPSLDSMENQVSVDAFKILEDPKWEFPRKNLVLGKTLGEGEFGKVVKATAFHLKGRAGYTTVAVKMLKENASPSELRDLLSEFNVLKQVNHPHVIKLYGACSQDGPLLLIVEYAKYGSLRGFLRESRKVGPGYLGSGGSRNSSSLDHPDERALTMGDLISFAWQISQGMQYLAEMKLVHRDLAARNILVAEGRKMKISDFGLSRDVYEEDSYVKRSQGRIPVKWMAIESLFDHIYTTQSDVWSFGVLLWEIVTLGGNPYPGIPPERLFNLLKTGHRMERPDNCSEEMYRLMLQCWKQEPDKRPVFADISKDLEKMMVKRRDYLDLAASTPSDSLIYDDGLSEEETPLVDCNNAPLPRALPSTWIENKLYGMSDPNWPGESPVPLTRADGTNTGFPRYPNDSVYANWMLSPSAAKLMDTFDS
T6 sequence (Q9UPE1 whole entry): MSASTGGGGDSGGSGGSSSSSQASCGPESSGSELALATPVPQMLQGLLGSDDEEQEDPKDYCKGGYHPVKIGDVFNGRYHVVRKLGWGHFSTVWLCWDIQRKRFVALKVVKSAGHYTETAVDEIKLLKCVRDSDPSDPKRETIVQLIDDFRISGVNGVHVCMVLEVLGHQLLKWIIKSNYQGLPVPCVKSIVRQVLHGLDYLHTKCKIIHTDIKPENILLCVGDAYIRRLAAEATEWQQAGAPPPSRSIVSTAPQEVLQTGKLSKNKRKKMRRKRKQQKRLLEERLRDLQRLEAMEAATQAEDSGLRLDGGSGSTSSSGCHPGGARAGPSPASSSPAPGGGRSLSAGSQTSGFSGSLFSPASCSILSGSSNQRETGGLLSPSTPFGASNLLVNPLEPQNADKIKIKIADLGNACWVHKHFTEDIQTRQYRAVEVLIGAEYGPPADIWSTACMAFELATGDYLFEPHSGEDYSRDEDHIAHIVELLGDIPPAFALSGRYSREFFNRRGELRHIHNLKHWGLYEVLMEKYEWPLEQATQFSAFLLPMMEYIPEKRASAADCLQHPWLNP

Activity % (ZAP-70(h)): 110%
Activity % (Ret(h)): −1%
Activity % (Fms(h)): 8%
Activity % (ROCK-II(h)): 58%
Activity % (Lck(h)): −8%
Activity % (WNK3(h)): 86%
Activity % (eEF-2K(h)): 86%
Activity % (FGFR1(h)): −1%
Activity % (PEK(h)): 103%
Activity % (Fes(h)): 32%
Activity % (DAPK2(h)): 106%
Activity % (VRK2(h)): 99%
Activity % (KDR(h)): 14%
Activity % (WNK2(h)): 99%
Activity % (CK2α2(h)): 115%
Activity % (MSSK1(h)): 110%
Activity % (Syk(h)): 84%
Activity % (Aurora-B(h)): 1%
Activity % (FGFR1(V561M)(h)): −4%
Activity % (PrKX(h)): 68%
Activity % (TSSK1(h)): 86%
Activity % (CDK5/p35(h)): 77%
Activity % (cSRC(h)): 2%
Activity % (CDK3/cyclinE(h)): 59%
Activity % (MST3(h)): 9%
Activity % (cKit(V560G)(h)): 3%
Activity % (Fyn(h)): 1%
Activity % (ALK(h)): 17%
Activity % (CaMKIδ(h)): 87%
Activity % (MINK(h)): 75%
Activity % (JNK2α2(h)): 107%
Activity % (MRCKβ(h)): 108%
Activity % (cKit(D816V)(h)): 63%
Activity % (CaMKIIδ(h)): 98%
Activity % (CDK2/cyclinA(h)): 97%
Activity % (EGFR(T790M)(h)): 61%
Activity % (Ros(h)): 46%
Activity % (FGFR2(N549H)(h)): −1%
Activity % (B1k(m)): 14%
Structure (SMILES): Cc1cc2c(F)c(Oc3nc(Nc4cc(C5CC5)[nH]n4)cc(N4CCN(C)CC4)n3)cc(F)c2[nH]1 [NTW-3475]
